This note sets out measurements from PubChem BioAssay (NCI).

Some test systems named below: SW-620 colon; NCI-H226 lung; UO-31 renal; K-562 leukemia; IGROV1 ovarian; EKVX NSCLC; T-47D breast; MALME-3M melanoma; HL-60(TB) leukemia; HS 578T breast.
Experiment in all cases: NCI tumour cell line growth inhibition, 48 h

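In this assay, cells in 96-well plates receive the compound at five concentrations for 48 hours. Endpoints are linearly interpolated between the surrounding concentrations. At the GI50, growth is halved. TGI: concentration producing complete growth inhibition.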

Regarding `Cc1nc2c(Br)cc(Br)cc2c(=O)n1-c1ccccc1NC1OC(CO)C(O)C(O)C1O` (configuration not stated), the TGI in the experiment on SW-620 colon, in the experiment on NCI-H226 lung, in the experiment with UO-31 renal, with K-562 leukemia, in the experiment with IGROV1 ovarian and in the experiment on EKVX NSCLC was over 100 µM each time. The TGI with T-47D breast, in the experiment with MALME-3M melanoma, with HL-60(TB) leukemia and in the experiment with HS 578T breast was over 100 µM each time.
On to `Cn1c(I)c(C#C[Si](C)(C)C)c(=O)n(C(=O)c2ccccc2)c1=O`, for which the GI50 in the experiment on SW-620 colon was 2.01 µM; with NCI-H226 lung, 7.44 µM; with UO-31 renal, 2.66 µM; with IGROV1 ovarian it was 1.74 µM; in the experiment with EKVX NSCLC, 6.06 µM; with T-47D breast, 2.03 µM. Moreover, the GI50 in the experiment with MALME-3M melanoma was 2.72 µM; with HL-60(TB) leukemia, 1.52 µM; in the experiment on HS 578T breast, 7.12 µM. The TGI in the experiment with SW-620 colon amounted to 4.27 µM; in the experiment on NCI-H226 lung, 21.7 µM; in the experiment with UO-31 renal, 11.9 µM; in the experiment on IGROV1 ovarian, 3.45 µM; in the experiment on EKVX NSCLC it was 21.2 µM; in the experiment on T-47D breast, 5.91 µM. The TGI with MALME-3M melanoma was 6.63 µM; in the experiment on HL-60(TB) leukemia, over 51.5 µM; with HS 578T breast, 23.6 µM.
For `NC(N)=N/N=C\c1ccc(OCc2ccccc2)cc1`, the GI50 with SW-620 colon is 1.64 µM; in the experiment with NCI-H226 lung, 4.87 µM; in the experiment with UO-31 renal it was 2.7 µM; in the experiment on K-562 leukemia, 2.65 µM; in the experiment on IGROV1 ovarian it was 3.42 µM; in the experiment with EKVX NSCLC, 7.37 µM. Moreover, the GI50 in the experiment on T-47D breast was 1.45 µM; with MALME-3M melanoma, 2.32 µM; with HL-60(TB) leukemia, 2.56 µM; in the experiment with HS 578T breast, 1.75 µM. The TGI in the experiment with SW-620 colon stood at 3.3 µM; in the experiment with NCI-H226 lung it was 24.2 µM; with UO-31 renal, 17.5 µM; in the experiment with K-562 leukemia it was 5.91 µM; in the experiment on IGROV1 ovarian, 18.3 µM; with EKVX NSCLC, 24.2 µM. The TGI is 4.22 µM with T-47D breast, 6.03 µM in the experiment with MALME-3M melanoma, 4.87 µM with HL-60(TB) leukemia and 4.81 µM in the experiment with HS 578T breast.
`CCOC(=O)c1cc(-c2ccc(OC)cc2)c([N+](=O)[O-])[nH]1`: the TGI in the experiment on SW-620 colon, with NCI-H226 lung, with UO-31 renal, in the experiment with K-562 leukemia, in the experiment on IGROV1 ovarian and in the experiment on EKVX NSCLC was over 10 µM in each case. Besides, the TGI with T-47D breast, with MALME-3M melanoma, in the experiment with HL-60(TB) leukemia and in the experiment with HS 578T breast was over 10 µM each time.
In the case of `N#Cc1nc(CCc2nc(C#N)c(N)o2)oc1N`, the TGI with SW-620 colon, in the experiment with NCI-H226 lung, in the experiment with UO-31 renal, in the experiment on K-562 leukemia, in the experiment on IGROV1 ovarian and in the experiment with EKVX NSCLC was over 10 µM each time. Moreover, the TGI in the experiment on T-47D breast, in the experiment on MALME-3M melanoma, with HL-60(TB) leukemia and in the experiment with HS 578T breast was over 10 µM throughout.
Consider `C=C(C)C1CC(=O)C(C)=C(O)C1` (configuration not stated), for which the TGI in the experiment on SW-620 colon, with NCI-H226 lung, in the experiment with UO-31 renal, with K-562 leukemia, in the experiment with IGROV1 ovarian and in the experiment on EKVX NSCLC was over 100 µM each time. Moreover, the TGI in the experiment on T-47D breast, in the experiment on MALME-3M melanoma, in the experiment on HL-60(TB) leukemia and with HS 578T breast was over 100 µM throughout.
Consider `COc1ccc2c(c1)C(=O)c1c-2c(OCCCN(C)C)nc2cc(Br)ccc12`, for which the GI50 was 5.2 µM in the experiment with SW-620 colon; 4.63 µM in the experiment with NCI-H226 lung; 1.36 µM in the experiment on UO-31 renal; 6.75 µM in the experiment on K-562 leukemia; 2.78 µM in the experiment on EKVX NSCLC; 10.8 µM with T-47D breast. Moreover, the GI50 in the experiment on MALME-3M melanoma was 1.87 µM; in the experiment on HL-60(TB) leukemia, 29.4 µM; in the experiment with HS 578T breast, 3.46 µM. Moreover, the TGI with SW-620 colon amounted to 20 µM; in the experiment on NCI-H226 lung, 18.7 µM; in the experiment on UO-31 renal it was 2.88 µM; in the experiment on K-562 leukemia, 23.1 µM; in the experiment on IGROV1 ovarian, 26.9 µM; in the experiment on EKVX NSCLC it was 13.5 µM. The TGI in the experiment with T-47D breast is 32.2 µM; in the experiment on MALME-3M melanoma it was 4.64 µM; in the experiment on HL-60(TB) leukemia it was over 100 µM; in the experiment on HS 578T breast, 15.4 µM.
`COc1c2ccoc2nc2c(OC)c(OCC(O)C(C)(C)O)ccc12` (configuration not stated): the TGI in the experiment on SW-620 colon, with NCI-H226 lung, in the experiment with UO-31 renal, in the experiment with K-562 leukemia, with IGROV1 ovarian and in the experiment with EKVX NSCLC was over 100 µM throughout. The TGI in the experiment with T-47D breast, in the experiment with MALME-3M melanoma, in the experiment with HL-60(TB) leukemia and with HS 578T breast was over 100 µM each time.
In the case of `CC(C)(C)C[C@H]1N[C@@H](C(=O)NC2CCC(O)CC2)[C@H](c2cccc(Cl)c2F)[C@@]12C(=O)Nc1cc(Cl)ccc12` (some centres not stated), the GI50 was 12.3 µM in the experiment on SW-620 colon; 0.238 µM in the experiment on NCI-H226 lung; 0.646 µM in the experiment on UO-31 renal; 4.15 µM in the experiment on K-562 leukemia; 2.07 µM with IGROV1 ovarian; 3.15 µM with EKVX NSCLC. In addition, the GI50 in the experiment with T-47D breast is 5.98 µM; in the experiment with MALME-3M melanoma, 0.131 µM; in the experiment on HL-60(TB) leukemia it was 2.66 µM; with HS 578T breast, 6.51 µM. For the same compound, the TGI is 29.4 µM in the experiment on SW-620 colon; 1.04 µM in the experiment on NCI-H226 lung; 11.1 µM in the experiment with UO-31 renal; 18.7 µM in the experiment with K-562 leukemia; 16.7 µM in the experiment with IGROV1 ovarian; 14.2 µM in the experiment on EKVX NSCLC. In addition, the TGI in the experiment with T-47D breast was 22.8 µM; with MALME-3M melanoma, 3.98 µM; in the experiment on HL-60(TB) leukemia, 7.06 µM; in the experiment on HS 578T breast it was 56.8 µM.
Take `C/C(=N/NC(=S)Nc1ccccc1)c1nc2ccc(Cl)cc2[nH]1`: the GI50 in the experiment on SW-620 colon is 0.208 µM; in the experiment on NCI-H226 lung, 0.134 µM; in the experiment with UO-31 renal it was 0.0738 µM; with K-562 leukemia, 0.147 µM; in the experiment on IGROV1 ovarian, 0.14 µM; in the experiment with EKVX NSCLC, 0.1 µM. Further, the GI50 in the experiment on T-47D breast is 0.292 µM; with MALME-3M melanoma it was 0.0737 µM; with HL-60(TB) leukemia, 0.101 µM; with HS 578T breast, 0.57 µM. Moreover, the TGI was determined as 0.99 µM in the experiment with SW-620 colon; 0.925 µM with NCI-H226 lung; 0.795 µM in the experiment with UO-31 renal; 13.4 µM in the experiment on K-562 leukemia; 1.19 µM with IGROV1 ovarian; 0.959 µM in the experiment with EKVX NSCLC. The TGI was 1.56 µM in the experiment with T-47D breast, 0.401 µM in the experiment with MALME-3M melanoma, 0.503 µM with HL-60(TB) leukemia and 1.96 µM with HS 578T breast.
